Data on 5 compounds can be found in patent publication US20030195169A1, “Phosphate prodrugs of fluorooxindoles” (priority 2002, published 2003).

For data set [1], the system named is cloned mammalian (mSlo or hSlo) BK channels heterologously expressed in Xenopus oocytes. Briefly: BK-mediated outward current, two-electrode voltage clamp in Xenopus oocytes. The class given is cell-based. The conditions noted are these: 10 μM; at least 5 oocytes. Here is the method: (§1) The ability of the compound of Formula II to open BK channels and increase whole-cell outward (K^+) BK-mediated currents was assessed under voltage-clamp conditions by determining their ability to increase cloned mammalian (mSlo or hSlo) BK-mediated outward current heterologously expressed in Xenopus oocytes [Butler, A., et al., Science, 261, pp. 221-224 (1993); and Dworetzky, S. I., et al., Mol. Brain Res., 27, pp. 189-193 (1994)]. The two BK constructs employed represent nearly structurally identical homologous proteins, and have proven to be pharmacologically identical in our tests. To isolate BK current from native (background, non-BK) current, the specific and potent BK channel-blocking toxin iberiotoxin (IBTX) [Galvez, A., et al., J. Biol. Chem, 265, pp. 11083-11090 (1990)] was employed at a supramaximal concentration (50 nM). The relative contribution of BK channels current to total outward current was determined by subtraction of the current remaining in the presence of IBTX (non-BK current) from the current profiles obtained in all other experimental conditions (control, drug, and wash). […] The compound of Formula II was shown in at least 5 oocytes at a concentration of 10 μM to increase BK current to 170% of control of IBTX-sensitive current. […]
Background: In two-electrode clamp one electrode senses voltage and the other passes current.

Data set [2] concerns non-BK native currents in the oocytes. The data set can be described thus: Non-BK native currents in oocytes (current remaining in presence of IBTX). Format: cell-based, Xenopus. As to conditions: at the tested concentration. As for the experimental part:
as §1

Data set [3] relates to focal cerebral ischemia (MCAO) in the Wistar rat. Briefly: Focal stroke model, permanent MCA/CCA occlusion. Format: in vivo. As to conditions: 0.3 mg/kg intravenously, single bolus two hours after MCAO; vs vehicle-treated control; 24 hours after MCAO. As for the experimental part:
To determine the ability of the compounds of the present invention to reduce cell loss resulting from neuronal ischemia, a standard focal cerebral ischemia is induced by permanent occlusion of the left middle cerebral artery (MCA) and common carotid artery (CCA) with one hour occlusion of the right CCA in the Wistar rat. The surgeries are performed using the sub-temporal approach of A. Tamura, et al., J. Cereb. Blood Flow Metab., 1, pp. 53-60, (1981) and its modifications [K. Osborne, et al., J. Neurol Neurosurg. Psychiatry, 50, pp. 402-410 (1987) and S. Menzies, et al., Neurosurgery, 31, pp. 100-107, (1992)].
The compound of Formula II was evaluated in the focal stroke model involving permanent occlusion of the left MCA (MCAO) and CCA (CCAO) and temporary occlusion of the right CCA in the Wistar rat [Gribkoff, et al. Nature Med. 7, pp. 471-477 (2001)]. This procedure results in a reliably large neocortical infarct volume that is measured by means of vital dye exclusion in serial slices through the brain 24 hours after MCAO. In the present test, compounds were administered using an i.v. or i.p. route of administration two hours after occlusion.

The conditions of data set [4]: cited from earlier work.
The test system of data set [5] is rat traumatic brain injury (TBI) model. The data set can be described thus: Rat traumatic brain injury (lateral fluid percussion) model, intracranial pressure (ICP) measurement. Format: in vivo. As to conditions: 0.08 mg/kg. Here is the method:
To determine the ability of the compounds of the present invention to decrease the amount of neuronal damage following head injury, a standard model of traumatic brain injury was employed. The rat traumatic brain injury (TBI) model is used to evaluate compounds for effectiveness in reversing or preventing the deleterious effects of a concussion-like injury. In general, rats in this model were anesthetized, a craniotomy is performed (surgical opening of the skull), and then saline was injected into the opening to produce a precise pulse of increased intracranial pressure (commonly called a fluid percussion injury). Animals were administered compound at the specified doses at 15 minutes following trauma. Animals were euthanized 48 hours post TBI.
Moderate diffuse brain injury (defined by McIntosh, et al. Neuroscience, 28:233-44 (1989)) was induced by a fluid-percussion device. The apparatus produces contusion via the rapid injection of a saline pulse [˜2.1 to 2.7 atmospheres of pressure (atm)] at a constant duration (21-23 millisecond) into a closed cranial cavity. The saline pulse results in the brief displacement and deformation of the underlying cortex. This model is thought to mimic the clinical situation where a patient experiences a concussion-like injury characterized by brief neurological and systemic physiological alterations without severe structural damage. The fluid percussion device produces brain injury without directly impacting the brain. Diffuse brain injury is achieved by the release of a weighted (4.8 kg) metal pendulum from a predetermined height (McIntosh, et al 1989) that strikes a cork-covered piston at the end of a Plexiglass cylindrical reservoir filled with isotonic saline. Varying volumes of saline are injected into the closed cranial cavity producing a pulse of increased intracranial pressure (ICP). Varying the height of the pendulum controls the magnitude of the injury.
In an alternate method, the severity of brain damage was assessed by Intracranial Pressure (ICP) measurement at various intervals post fluid percussion up to 24 hours. In brief, prior to the fluid percussion a burr hole was made 1 mm from the sagittal suture, centered over the right parietal cortex 5 mm from lambda, 5 mm from bregma. Following fluid percussion injury, the trauma cap and cranioplastic cement were removed. In order to achieve adequate ICP values, while still under anesthesia, the craniotomy cap was re-inserted in its original location post fluid percussion. Pre-cut sterile foil was also placed over the craniotomy cap. Cranioplastic cement was placed over the foil to seal the brain cavity. To obtain continuous ICP measurements the probe was inserted into the burr hole and fixed by cranioplastic cement, the animal was then sutured (using 3-0) and the rat was placed in a Hopper cage to allow for free movement during the experiment. Next, the ICP transducer was connected to a Codman ICP monitor for continuous ICP measurements up to 24 hrs post-TBI or post-sham injury. During this time the animal had regular access to water and food. At 24 hrs post-TBI the experiment was terminated and animals were euthanatized by sodium pentobarbital overdose (130 mg/kg; i.p.).
These experiments consist of a sham-vehicle group (SV), a TBI-vehicle group (TV), sham-drug treated groups (SD; 0.08 mg/kg compound of Example 14 [dose equivalent of 0.05 mg/kg compound of Formula (S)-II]) and TBI-drug treated groups (TD; 0.08 mg/kg compound of Example 14). Each sham group acted as a control for the corresponding TBI group. All of the animals underwent anesthesia and surgery. In the TBI groups, brain injury was induced using the lateral fluid-percussion model. Drug treatment was initiated at 15 minutes post-TBI or sham-injury. […] Five minutes post injury absolute ICP (raw data) increased 6.8 mmHg units in TV animals compared to SV animals (SV-5.55 vs. TV-12.35). […]

Data set [6] can be described thus: Solubility (qualitative statements). The class given is physicochemical.
Data set [7] can be described thus: Rat blood levels of compound (S)-II after prodrug administration. Format: in vivo, male Sprague-Dawley rats. As to conditions: intravenous bolus, dose equivalent to 1 mg/kg of (S)-II; whole blood; LC/MS/MS; n=3 rats/timepoint. Here is the method: The compound of Formula (S)-II or a prodrug of Formula I was administered intravenous bolus to male Sprague-Dawley rats (n=3 rats/timepoint) at a target dose equivalent to 1 mg/kg of the compound of Formula (S)-II. At T=0.25, 1 and 2 hours post-dose, whole blood samples were collected and extracted with acetonitrile. Blood extracts were analyzed by LC/MS/MS for levels of the compound of Formula (S)-II.

For the compound `COc1ccc(Cl)cc1C1(F)C(=O)Nc2cc(C(F)(F)F)ccc21` (racemic) [compound of Formula II, 3-(5-chloro-2-methoxyphenyl)-1,3-dihydro-3-fluoro-6-(trifluoromethyl)-2H-indol-2-one], the “BK current, % of control of IBTX-sensitive current” value in data set [1] is 170 % of control. In addition, the “effect on non-BK native currents in the oocytes” value in data set [2] is listed as “did not effect non-BK native currents”. Besides, the “reduction of cortical infarct volume” value in data set [3] is reported as “about 28%”.
Regarding `COc1ccc(Cl)cc1[C@]1(F)C(=O)Nc2cc(C(F)(F)F)ccc21` [Compound of Formula (S)-II, (3S)-(+)-(5-chloro-2-methoxyphenyl)-1,3-dihydro-3-fluoro-6-(trifluoromethyl)-2H-indol-2-one], the aqueous solubility entry in data set [4] is listed as “low aqueous solubility”.
For `COc1ccc(Cl)cc1[C@]1(F)C(=O)N(COP(=O)([O-])[O-])c2cc(C(F)(F)F)ccc21.[K+].[K+]` [Example 14, (S)-Phosphoric acid mono-[3-(5-chloro-2-methoxy-phenyl)-3-fluoro-2-oxo-6-trifluoromethyl-2,3-dihydro-indol-1-ylmethyl] ester, potassium salt], the “intra-animal mean ICP reduction, TD” value is −2.85 mmHg in data set [5] (30 minutes post injury); −3.95 mmHg in data set [5] (45 minutes post injury); −4.5 mmHg in data set [5] (60 min post injury); −4.3 mmHg in data set [5] (2 hours post injury); −4.3 mmHg in data set [5] (3 hr post injury); −4.15 mmHg in data set [5] (4 hours post injury). In data set [5] (24 hours post injury), the “intra-animal mean ICP reduction, TD” value is −3.05 mmHg. Besides, in data set [5] (45 minutes, 60 minutes, 2, 3, 4 and 24 hours post-TBI), the “absolute ICP, TD vs TV, significance” value was “significantly different from TV”. In data set [5] (60 minutes post injury (45 minutes post-drug injection)), the “reduction of absolute ICP, TD vs TV” value is given as 3.1 mmHg units. For the same compound, the “intra-animal mean ICP reduction, sham-drug group (SD)” value in data set [5] (4 hours post-sham injury) is on record as −2.1 mmHg. In data set [5] (sham injury, until 4 hours post-sham injury), the “ICP, SD vs SV, significance” value is reported as “did not significantly differ from SV”.
Regarding `COc1ccc(Cl)cc1[C@]1(F)C(=O)N(COP(=O)([O-])[O-])c2cc(C(F)(F)F)ccc21.[Mg+2]` [Example 18, (S)-Phosphoric acid mono-[3-(5-chloro-2-methoxy-phenyl)-3-fluoro-2-oxo-6-trifluoromethyl-2,3-dihydro-indol-1-ylmethyl] ester, magnesium salt], in data set [6], the solubility in water entry was “marginally soluble in water”. Further, the “solubility in organic solvents” value in data set [6] (relative to water) is reported as “more soluble in organic solvents”.
Regarding “(S)-Phosphoric acid mono-[3-(5-chloro-2-methoxy-phenyl)-3-fluoro-2-oxo-6-trifluoromethyl-2,3-dihydro-indol-1-ylmethyl] ester, mono tetrabutylammonium salt [Example 2]”, the “Truncated Blood AUC(0.25-2 hr) Compound of Formula (S)-II” value in data set [7] came to 188 ng·h/mL.
